Our source for the GI50 and TGI values is PubChem BioAssay (NCI).

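Values below derive from 48-hour exposures of cells grown in 96-well plates, with endpoints linearly interpolated between the two concentrations bracketing the appropriate inhibition level. At the GI50, growth is halved. TGI marks complete inhibition of growth.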 Where a SMILES comes first, the peptide text is derived from it. [ ]: non-standard residue; d: D form. 2Nal = N[CH](Cc1ccc2ccccc2c1)C(=O)O

Some test systems named below: A549 NSCLC; ACHN renal; HOP-92 NSCLC; IGROV1 ovarian; NCI-H23 lung; SK-MEL-28 melanoma; SK-MEL-5 melanoma; UACC-62 melanoma; UO-31 renal; HL-60(TB) leukemia.
Common to all, as to experiment: DTP human tumour cell line panel, 48 h

As usually defined, the GI50 is the concentration giving 50% growth inhibition. Usually TGI stands for the concentration at which net growth stops. Low readings indicate more potent growth arrest, high ones less potent growth arrest. In the case of `O=C(NN1C(=O)CSC12CCCC2)C(O)c1ccccc1` (stereo unspecified), the GI50 in the test with A549 NSCLC, with ACHN renal, in the test on HOP-92 NSCLC, with IGROV1 ovarian, in the test with NCI-H23 lung and with SK-MEL-28 melanoma was above 100 µM each time. In addition, the GI50 in the test on SK-MEL-5 melanoma, in the test on UACC-62 melanoma and in the test with UO-31 renal was above 100 µM throughout. The TGI in the test with A549 NSCLC, with ACHN renal, in the test with HOP-92 NSCLC, with IGROV1 ovarian, in the test with NCI-H23 lung and in the test on SK-MEL-28 melanoma was above 100 µM each time. The TGI with SK-MEL-5 melanoma, in the test with UACC-62 melanoma and with UO-31 renal was above 100 µM each time.
With `O=C(O)CCSC(=S)Nc1cccc(F)c1`, the TGI was above 100 µM in the test with A549 NSCLC; 83.3 µM in the test on ACHN renal; 98.9 µM in the test on HOP-92 NSCLC; 80.9 µM with IGROV1 ovarian; above 100 µM with NCI-H23 lung; 83.1 µM in the test with SK-MEL-28 melanoma. Moreover, the values for the total growth inhibition concentration (TGI) with SK-MEL-5 melanoma, in the test on UACC-62 melanoma and in the test with UO-31 renal were 43.5 µM, 29.5 µM and above 100 µM, respectively.
As for `N#Cc1cc(NC(=O)c2ccccc2)c(=O)n2c1[nH]c1ccccc12`, the TGI in the test on A549 NSCLC is above 100 µM; in the test with ACHN renal, above 100 µM; with HL-60(TB) leukemia, 74.6 µM; with IGROV1 ovarian it was above 100 µM; with NCI-H23 lung, 57.7 µM; in the test with SK-MEL-28 melanoma, 67.7 µM. Also, the TGI in the test with SK-MEL-5 melanoma is 34.2 µM; in the test on UACC-62 melanoma it was above 100 µM; in the test on UO-31 renal, 42.9 µM.
Consider `Cc1ccc(/C=C(\C#N)c2ccccc2)cc1`, for which the TGI in the test on ACHN renal, in the test with HOP-92 NSCLC, in the test with IGROV1 ovarian, with NCI-H23 lung, with SK-MEL-28 melanoma and in the test on SK-MEL-5 melanoma was above 100 µM in each case. The TGI in the test on UACC-62 melanoma and with UO-31 renal was above 100 µM in each case.
As to `COc1ccc(CNc2cnc3cc(N)cc(N)c3n2)cc1`, the GI50 in the test on A549 NSCLC is 23 µM; in the test on ACHN renal, 17.2 µM; in the test with HOP-92 NSCLC, 24.1 µM; in the test with IGROV1 ovarian it was 11.2 µM; with NCI-H23 lung, 15.1 µM; in the test with SK-MEL-28 melanoma, 58 µM. Besides, the GI50 with SK-MEL-5 melanoma was 18.9 µM; in the test with UACC-62 melanoma, 18.1 µM; in the test with UO-31 renal it was 16.3 µM. Also, the TGI is 54.1 µM in the test on A549 NSCLC; 32.2 µM with ACHN renal; 54.3 µM in the test on HOP-92 NSCLC; 29 µM with IGROV1 ovarian; 29.1 µM in the test on NCI-H23 lung; above 100 µM in the test with SK-MEL-28 melanoma. Moreover, the concentration for total growth inhibition (TGI) in the test on SK-MEL-5 melanoma came out at 35.2 µM; in the test on UACC-62 melanoma, 32.4 µM; in the test on UO-31 renal, 33.7 µM.
Consider `O=C(Nc1cccc(Cl)c1)c1cc(N=Nc2ccc([N+](=O)[O-])cc2Cl)ccc1O`, for which the GI50 in the test with A549 NSCLC was 3.01 µM; with ACHN renal, 2.3 µM; in the test on HOP-92 NSCLC, 1.24 µM; with IGROV1 ovarian, 3.12 µM; with NCI-H23 lung, 1.93 µM; with SK-MEL-28 melanoma, 2.88 µM. The GI50 in the test on SK-MEL-5 melanoma was 1.86 µM; in the test on UACC-62 melanoma, 2.44 µM; in the test with UO-31 renal it was 2.16 µM. Besides, the TGI in the test with A549 NSCLC is above 100 µM; with ACHN renal it was 6.46 µM; in the test on HOP-92 NSCLC, 4.12 µM; in the test on IGROV1 ovarian, 19 µM; with NCI-H23 lung it was 4.58 µM; with SK-MEL-28 melanoma it was 10.9 µM. Also, the TGI in the test with SK-MEL-5 melanoma came to 3.81 µM; in the test on UACC-62 melanoma, 6.65 µM; with UO-31 renal it was 6.08 µM.
On to `O=C(O)CCSC(=O)Nc1ccccc1Cl`, for which the TGI in the test with A549 NSCLC, in the test on ACHN renal, in the test on HOP-92 NSCLC, in the test with IGROV1 ovarian, in the test on NCI-H23 lung and in the test with SK-MEL-28 melanoma was above 100 µM in each case. Moreover, the total growth inhibition concentration (TGI) with SK-MEL-5 melanoma, in the test on UACC-62 melanoma and with UO-31 renal was above 100 µM each time.
Regarding `CC(C)C(NC(=O)C(CCCCN)NC(=O)C(Cc1c[nH]c2ccccc12)NC(=O)C(Cc1ccc(O)cc1)NC(=O)C(CS)NC(=O)C(N)Cc1ccc2ccccc2c1)C(=O)NC(CS)C(=O)NC(C(N)=O)C(C)O` (stereo unspecified) (H-[2Nal]CYWKVCT-NH2; configuration not given here), the GI50 with A549 NSCLC, in the test on ACHN renal, with HL-60(TB) leukemia, in the test with IGROV1 ovarian, with NCI-H23 lung and with UACC-62 melanoma was above 100 µM in each case. Moreover, the GI50 with UO-31 renal is above 100 µM. In addition, the TGI in the test with A549 NSCLC, in the test on ACHN renal, with HL-60(TB) leukemia, in the test on IGROV1 ovarian, with NCI-H23 lung and in the test on SK-MEL-28 melanoma was above 100 µM throughout. For the same molecule, the total growth inhibition concentration (TGI) with SK-MEL-5 melanoma was above 12.5 µM; in the test with UACC-62 melanoma, above 100 µM; in the test on UO-31 renal it was above 100 µM.
For `C#CCN(N=O)C(=O)NCCCC(NC(C)=O)C(=O)NCc1ccccc1` (stereo unspecified), the TGI with A549 NSCLC, with ACHN renal, in the test with HOP-92 NSCLC, in the test on IGROV1 ovarian, in the test on NCI-H23 lung and in the test with SK-MEL-28 melanoma was above 100 µM each time. Also, the concentration for total growth inhibition (TGI) with SK-MEL-5 melanoma, in the test with UACC-62 melanoma and in the test on UO-31 renal was above 100 µM throughout.
As to `NNC(=S)Nc1cccc(Cl)c1`, the TGI in the test on A549 NSCLC, with ACHN renal, with HL-60(TB) leukemia, in the test with IGROV1 ovarian, with NCI-H23 lung and in the test on SK-MEL-28 melanoma was above 100 µM each time. The total growth inhibition concentration (TGI) in the test on SK-MEL-5 melanoma, with UACC-62 melanoma and with UO-31 renal was above 100 µM throughout.
Consider `COc1ccc2c(c1)N(CCO)C1=C(C(=O)OC1)C2c1ccccc1` (stereo unspecified), for which the GI50 in the test with A549 NSCLC is 2.12 µM; in the test with ACHN renal it was 3.78 µM; with HL-60(TB) leukemia, 1.15 µM; in the test with IGROV1 ovarian, 2.41 µM; with NCI-H23 lung, 1.94 µM; in the test with SK-MEL-28 melanoma, 2.98 µM. Further, the values for the GI50 in the test with SK-MEL-5 melanoma, in the test with UACC-62 melanoma and in the test with UO-31 renal were 1.58 µM, 1.72 µM and 2.37 µM, respectively. For the same molecule, the concentration for total growth inhibition (TGI) was above 50 µM with A549 NSCLC; above 50 µM with ACHN renal; 2.84 µM with HL-60(TB) leukemia; above 50 µM with IGROV1 ovarian; above 50 µM with NCI-H23 lung; above 50 µM with SK-MEL-28 melanoma. Besides, the total growth inhibition concentration (TGI) in the test on SK-MEL-5 melanoma was 8.83 µM; in the test on UACC-62 melanoma, above 50 µM; in the test on UO-31 renal, above 50 µM.
